Legend:
liver tissue = test: DNA fragmentation assay of liver tissue from acetaminophen-treated mice; format: in vivo; conditions: without pre-exposure to GSPE
Method: (§1) Trials of the efficacy of GSPE in preventing acetaminophen toxicity were performed using mice as test subjects. The GSPE used in the subject trials is a standardized water-ethanol extract from red grape seeds, identified as IH636 by InterHealth Nutraceuticals, Inc., of Concord, Calif. The dosage used in the subject trials was 100 mg of GSPE per kg of body weight, daily for three or seven days. This dosage is equivalent to about […] of body weight, based on the following formula from the CRC Handbook of Toxicology, Delanko M. J. and Hollinger M. A. eds., CRC Press 1995, p. 654:
(§2) GSPE was dissolved in phosphate-buffered saline solution and the solution was administered orally. Acetaminophen then was administered intraperitoneally, as a single toxic dose, in dosage of either 400 or 500 mg/kg. These dosage levels are equivalent to approximately 10 grams for normal healthy adults and 4 to 6 grams for alcoholics, levels that have been found toxic for humans. Twenty-four hours after administration of the acetaminophen, blood samples were removed from the subjects and analyzed for serum alanine aminotransferase activity, a well-known biomarker of liver toxicity. Liver samples also were taken and analyzed them for apoptotic and necrotic cell death DNA damage and gene expression.

[1] = system: serum alanine aminotransferase activity; test: serum alanine aminotransferase (ALT) activity in acetaminophen-treated mice; format: in vivo; conditions: no pre-exposure to GSPE, 24 h
Method: as §1, §2

mice = test: number of deaths of mice treated with acetaminophen and GSPE; format: in vivo; conditions: without pre-exposure to GSPE
Method: as §1, §2

liver sections = liver sections at 400× magnification (histology); format: in vivo, mice; conditions: acetaminophen 500 mg/kg without GSPE pre-treatment; FIG. 11
Method: as §1
FIGS. 9 through 12 show comparison liver sections from test subjects at 400× magnification. FIGS. 9 and 10 show normal liver sections from test subjects not given acetaminophen.

humans = conditions: normal healthy adults; cited from earlier work

CC(=O)Nc1ccc(O)cc1 [acetaminophen, N-acetyl-p-amino phenol]
DNA fragmentation (liver tissue; acetaminophen 400 mg/kg): about 3.5 times that of the control group | DNA fragmentation (liver tissue; acetaminophen 500 mg/kg): about 4.8 times that of the control group | serum ALT ([1]; acetaminophen 400 mg/kg i.p.): about 22,000 U/L | serum ALT ([1]; acetaminophen 500 mg/kg i.p.): about 30,000 U/L | number of deaths (mice; acetaminophen 400 mg/kg): 2 | number of deaths (mice; acetaminophen 500 mg/kg): 4 | liver section appearance indicating toxicity (liver sections): whitening and browning of cells, indicating toxicity | dosage level found toxic for humans (humans): approximately 10 grams
